The text below walks through data of patent US10577363B2, “Substituted piperidine compounds” (EPIZYME, INC., priority 2014, dated 2020).

A word on the IC50: it is the concentration needed to halve the response being measured.

For experiment [1], the system named is esophageal, liver and breast cancer cell lines. The following applies: several esophageal, dose-dependent; cited from earlier work.
Experiment [2] concerns the target T1, SMYD3 (Homo sapiens (Human), UniProt Q9H7B4). The experiment can be described thus: SMYD3 biochemical assay (SPA, 3H-SAM methylation of MEKK2 protein substrate). A digest of the protocol:
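Native full-length human SMYD3 (E. coli-expressed, tags removed) was preincubated with compound for 30 min at room temperature in 25 mM Tris-Cl pH 8.0, 1 mM TCEP, 0.005% BSG, 0.005% Tween 20. Reaction was started with 3H-SAM plus GST-MEKK2, quenched with 100 uM unlabeled SAM, and read by SPA scintillation counting.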

The target in experiment [3] is T1, SMYD3. The experiment can be described thus: SMYD3 cell assay (Trimethyl-MEKK2 In-Cell Western in 293T/17 cells). In kind it is cell-based. A digest of the protocol:
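In-Cell Western ratio of trimethyl-Lys260 MEKK2 to anti-flag signal; percent inhibition from DMSO and maximum-inhibition controls, IC50 by non-linear regression, triplicates.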

Setting [4] is: IC50 values are an average of n = 1 to n = 50, read-out: SMYD3 Biochem IC50*.
[5] abbreviates: IC50 values are an average of n = 1 to n = 50, read-out: SMYD3 Cell IC50*.

T1 sequence (Q9H7B4 whole entry): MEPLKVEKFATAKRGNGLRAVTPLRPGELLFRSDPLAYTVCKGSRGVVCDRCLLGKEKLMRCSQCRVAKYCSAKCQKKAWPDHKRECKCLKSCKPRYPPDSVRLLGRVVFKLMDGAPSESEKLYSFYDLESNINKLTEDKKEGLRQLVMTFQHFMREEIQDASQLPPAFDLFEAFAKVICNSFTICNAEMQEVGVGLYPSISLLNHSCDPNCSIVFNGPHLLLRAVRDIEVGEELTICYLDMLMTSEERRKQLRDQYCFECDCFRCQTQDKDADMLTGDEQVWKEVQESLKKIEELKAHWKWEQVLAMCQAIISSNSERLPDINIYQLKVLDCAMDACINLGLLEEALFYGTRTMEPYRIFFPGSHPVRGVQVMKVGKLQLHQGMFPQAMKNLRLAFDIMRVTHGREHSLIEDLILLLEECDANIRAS

For the compound `Cc1cn(CCN2CCN(c3ccccc3-c3cc(C#N)cc(C(=O)NCCCN4CCCC4)c3)CC2)c2ccccc12` [LLY-507], the “inhibition of proliferation of cancer cell lines” value in experiment [1] was “inhibited the proliferation”. For `O=C(N[C@H]1C[C@H]2CC[C@@H](C1)N2S(=O)(=O)[C@@H]1CCCN(CCO)C1)c1cc(C2CC2)on1` [compound 981, 5-cyclopropyl-N-((1R,3R,5S)-8-(((R)-1-(2-hydroxyethyl)piperidin-3-yl)sulfonyl)-8-azabicyclo[3.2.1]octan-3-yl)isoxazole-3-carboxamide], the IC50 is 127 nM at SMYD3 [2] (setting [4]) and 466 nM at SMYD3 [3] (setting [5]). `CN1CCCC1CS(=O)(=O)N1[C@@H]2CC[C@H]1C[C@@H](NC(=O)c1cc(C3CC3)on1)C2` (stereo partly drawn) [compound 982, 5-cyclopropyl-N-((1R,3r,5S)-8-(((1-methylpyrrolidin-2-yl)methyl)sulfonyl)-8-azabicyclo[3.2.1]octan-3-yl)isoxazole-3-carboxamide]: the IC50 at SMYD3 [2] (setting [4]) was determined as 134 nM; at SMYD3 [3] (setting [5]), 819 nM. On to `CC[C@H]1CNCCN1S(=O)(=O)N1CC[C@H](NC(=O)c2cc(C3CC3)on2)C[C@@H]1C` [compound 983, 5-cyclopropyl-N-((2S,4S)-1-(((S)-2-ethylpiperazin-1-yl)sulfonyl)-2-methylpiperidin-4-yl)isoxazole-3-carboxamide], for which the concentration for half-maximal inhibition (IC50) stood at 142 nM at SMYD3 [2] (setting [4]) and 931 nM at SMYD3 [3] (setting [5]). For `C[C@H]1C[C@@H](NC(=O)c2cc(C3CC3)on2)CCN1S(=O)(=O)N1CCNC[C@@H]1c1ccccc1` [compound 984, 5-cyclopropyl-N-((2S,4S)-2-methyl-1-(((S)-2-phenylpiperazin-1-yl)sulfonyl)piperidin-4-yl)isoxazole-3-carboxamide], in that order: 142 nM and 1850 nM.

Regarding `O=C(N[C@H]1C[C@H]2CC[C@@H](C1)N2S(=O)(=O)[C@H]1CCCN(CCO)C1)c1cc(C2CC2)on1` [compound 985, 5-cyclopropyl-N-((1R,3S,5S)-8-(((S)-1-(2-hydroxyethyl)piperidin-3-yl)sulfonyl)-8-azabicyclo[3.2.1]octan-3-yl)isoxazole-3-carboxamide], the results for the IC50 at SMYD3 [2] (setting [4]) and at SMYD3 [3] (setting [5]) were 155 nM and 708 nM, respectively.

For `COCCNCc1ccc(S(=O)(=O)N2[C@@H]3CC[C@H]2C[C@@H](NC(=O)c2cc(C4CC4)on2)C3)cc1` [compound 986, 5-cyclopropyl-N-((1R,3r,5S)-8-((4-(((2-methoxyethyl)amino)methyl)phenyl)sulfonyl)-8-azabicyclo[3.2.1]octan-3-yl)isoxazole-3-carboxamide], the figures for the concentration for half-maximal inhibition (IC50) at SMYD3 [2] (setting [4]) and on SMYD3 [3] (setting [5]) were 156 nM and 807 nM, respectively.

On to `CCc1cc(C(=O)N[C@@H]2CCN(S(=O)(=O)c3ccc(C(C)(C)N)cc3)[C@@H](C)C2)no1` [compound 987, N-((2S,4R)-1-((4-(2-aminopropan-2-yl)phenyl)sulfonyl)-2-methylpiperidin-4-yl)-5-ethylisoxazole-3-carboxamide], for which the IC50 at SMYD3 [2] (setting [4]) stood at 158 nM; at SMYD3 [3] (setting [5]), 776 nM. The corresponding values for `CN(C)C(C)(C)c1ccc(S(=O)(=O)N2[C@@H]3CC[C@H]2C[C@@H](NC(=O)c2cc(C4CC4)on2)C3)cc1` [compound 988, 5-cyclopropyl-N-((1R,3r,5S)-8-((4-(2-(dimethylamino)propan-2-yl)phenyl)sulfonyl)-8-azabicyclo[3.2.1]octan-3-yl)isoxazole-3-carboxamide] are 158 nM and 1670 nM. The corresponding values for `C[C@H]1C[C@@H](NC(=O)c2cc(C3CC3)on2)CCN1S(=O)(=O)CC1CCCCN1` (stereo partly drawn) [compound 989, 5-cyclopropyl-N-((2S,4S)-2-methyl-1-((piperidin-2-ylmethyl)sulfonyl)piperidin-4-yl)isoxazole-3-carboxamide] are 175 nM and 1160 nM.

As to `O=C(N[C@H]1C[C@H]2CC[C@@H](C1)N2S(=O)(=O)N1CC2CCC(C1)N2CCC(F)(F)F)c1cc(C2CC2)on1` [compound 990, 5-cyclopropyl-N-((1R,3r,5S)-8-((8-(3,3,3-trifluoropropyl)-3,8-diazabicyclo[3.2.1]octan-3-yl)sulfonyl)-8-azabicyclo[3.2.1]octan-3-yl)isoxazole-3-carboxamide], the IC50 was 184 nM on SMYD3 [2] (setting [4]) and 935 nM at SMYD3 [3] (setting [5]). On to `CCC[C@H]1C[C@@H](NC(=O)c2cc(C3CC3)on2)CCN1S(=O)(=O)CC1CCN(C)CC1` [compound 991, 5-cyclopropyl-N-((2S,4S)-1-(((1-methylpiperidin-4-yl)methyl)sulfonyl)-2-propylpiperidin-4-yl)isoxazole-3-carboxamide], for which the IC50 on SMYD3 [2] (setting [4]) was found to be 187 nM; on SMYD3 [3] (setting [5]), 2190 nM. For `C[C@H]1CN(S(=O)(=O)N2CC[C@H](NC(=O)c3cc(C4CC4)on3)C[C@@H]2C)[C@@H](C)CN1` [compound 992, 5-cyclopropyl-N-((2S,4S)-1-(((2S,5S)-2,5-dimethylpiperazin-1-yl)sulfonyl)-2-methylpiperidin-4-yl)isoxazole-3-carboxamide], in that order: 188 nM and 1120 nM. The corresponding values for `CC(C)Cc1cc(C(=O)N[C@H]2C[C@H]3CC[C@@H](C2)N3S(=O)(=O)CC2CCN(C)CC2)no1` [compound 993, 5-isobutyl-N-((1R,3r,5S)-8-(((1-methylpiperidin-4-yl)methyl)sulfonyl)-8-azabicyclo[3.2.1]octan-3-yl)isoxazole-3-carboxamide] are 206 nM and 2770 nM. Turning to “N-((2S,4S)-1-(3,8-diaza-bicyclo[3.2.1]octan-8-ylsulfonyl)-2-methylpiperidin-4-yl)-5-cyclopropylisoxazole-3-carboxamide [Cpd. No. 555]”, the concentration for half-maximal inhibition (IC50) turned out to be 3.7 nM at SMYD3 [2] (Table 2A, read-out: SMYD3 Biochem IC50) and 23.9 nM on SMYD3 [3] (Table 2A, read-out: SMYD3 Cell IC50).
